Source: patent publication US20160185797A1, “ALKYNYL ALCOHOLS AND METHODS OF USE” (Genentech, Inc., priority 2013, published 2016)

Biological target: T1, nuclear factor-kappa B (NF-kB)-inducing kinase (NIK) (Homo sapiens, UniProt Q99558)
T1 construct: made in house; host or cells: baculovirus-infected insect cells
Test: NIK enzyme inhibition assay (Transcreener ADP fluorescence polarization, NIK ADP-FP)
Format: biochemical

T1 sequence (Q99558 whole entry): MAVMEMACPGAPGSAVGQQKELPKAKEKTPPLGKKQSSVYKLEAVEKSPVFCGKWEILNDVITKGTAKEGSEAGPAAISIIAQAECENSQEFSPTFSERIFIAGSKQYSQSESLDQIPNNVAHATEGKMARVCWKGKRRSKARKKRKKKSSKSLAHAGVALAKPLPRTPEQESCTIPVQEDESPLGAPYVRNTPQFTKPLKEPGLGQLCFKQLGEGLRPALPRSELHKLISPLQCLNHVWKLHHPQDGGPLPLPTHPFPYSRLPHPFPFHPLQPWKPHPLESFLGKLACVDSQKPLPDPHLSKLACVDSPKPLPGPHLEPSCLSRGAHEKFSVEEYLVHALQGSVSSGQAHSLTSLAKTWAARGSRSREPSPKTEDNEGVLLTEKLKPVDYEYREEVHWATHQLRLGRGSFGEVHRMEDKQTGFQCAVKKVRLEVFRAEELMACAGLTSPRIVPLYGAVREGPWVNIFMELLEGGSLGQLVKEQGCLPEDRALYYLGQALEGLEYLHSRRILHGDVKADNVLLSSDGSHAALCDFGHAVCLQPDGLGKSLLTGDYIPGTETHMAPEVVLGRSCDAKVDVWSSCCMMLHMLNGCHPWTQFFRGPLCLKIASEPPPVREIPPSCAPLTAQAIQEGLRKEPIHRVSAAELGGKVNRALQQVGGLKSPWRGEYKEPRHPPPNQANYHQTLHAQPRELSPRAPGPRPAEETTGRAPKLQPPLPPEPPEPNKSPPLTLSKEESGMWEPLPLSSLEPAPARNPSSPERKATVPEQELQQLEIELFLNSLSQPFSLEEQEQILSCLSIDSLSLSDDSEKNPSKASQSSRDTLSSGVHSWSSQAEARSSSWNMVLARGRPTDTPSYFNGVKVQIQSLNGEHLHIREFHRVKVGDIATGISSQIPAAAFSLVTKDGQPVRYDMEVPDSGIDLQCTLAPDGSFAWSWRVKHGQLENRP

Question: `CN1CC[C@@](O)(C#Cc2cccc(-c3nc(N[C@H]4CCOC4)cc(C(N)=O)n3)c2)C1=O` (single isomer, unassigned) [Example 30] was tested. Which Ki did it give?
Answer: The Ki was 23.2 nM.

Question: How did the Ki turn out when `NC(=O)c1nc(-c2cccc(C#C[C@]3(O)CCOC3=O)c2)ccc1N` (single isomer, unassigned) [Example 64] was run?
Answer: Its Ki is 4.07 nM.

Question: With `NC(=O)c1nc(-c2cccc(C#C[C@@]3(O)CCOC3=O)c2)ccc1N` (single isomer, unassigned) [Example 65] as the compound, how does the Ki read?
Answer: Its Ki is 38 nM.

Question: `CN1CCC(O)(C#Cc2cccc(-c3nc(C(N)=O)ncc3NCC(F)(F)F)c2)C1=O` (stereo in doubt) [Example 147, 4-[3-[2-[(3R)-3-hydroxy-1-methyl-2-oxo-pyrrolidin-3-yl]ethynyl]phenyl]-5-(2,2,2-trifluoroethylamino) pyrimidine-2-carboxamide] was tested. Which Ki did it give?
Answer: Its Ki is 879 nM.

Question: Which Ki does the source give for `CC(=O)N1CCN(c2cc(C(N)=O)nc(-c3cccc(C#C[C@]4(O)CCN(C)C4=O)c3)n2)CC1` [Example 7, 6-(4-acetylpiperazin-1-yl)-2-[3-[2-[(3R)-3-hydroxy-1-methyl-2-oxo-pyrrolidin-3-yl]ethynyl]phenyl]pyrimidine-4-carboxamide] here?
Answer: Its Ki is 1.25 nM.

Question: Which Ki does the source give for `CN1CC[C@@](O)(C#Cc2cccc(-c3nc(C(N)=O)cc(N4CC[C@@H](O)C4)n3)c2)C1=O` [Example 24, 2-[3-[2-[(3R)-3-hydroxy-1-methyl-2-oxo-pyrrolidin-3-yl]ethynyl]phenyl]-6-[(3R)-3-hydroxypyrrolidin-1-yl] pyrimidine-4-carboxamide] here?
Answer: Its Ki is 1.05 nM.

Question: With `CC(C)C[C@H]1CCCN1c1cc(C(N)=O)nc(-c2cccc(C#C[C@]3(O)CCN(C)C3=O)c2)n1` [Example 25, 2-[3-[2-[(3R)-3-hydroxy-1-methyl-2-oxo-pyrrolidin-3-yl]ethynyl]phenyl]-6-[(2R)-2-isobutylpyrrolidin-1-yl] pyrimidine-4-carboxamide] as the compound, how does the Ki read?
Answer: The Ki was 5.57 nM.

Question: Which Ki does the source give for `Cc1cnc([C@@](C)(O)C#Cc2cccc(-c3nc(C(N)=O)c4ccn(C)c4n3)c2)o1` [Example 54, 2-[3-[(3S)-3-hydroxy-3-(5-methyloxazol-2-yl)but-1-ynyl]phenyl]-7-methyl-pyrrolo[2,3-d] pyrimidine-4-carboxamide] here?
Answer: The Ki was 510 nM.

Question: With `CN1CC[C@@](O)(C#Cc2cccc(-c3nc(C(N)=O)cc4nccn34)c2)C1=O` [Example 61, 5-[3-[2-[(3R)-3-hydroxy-1-methyl-2-oxo-pyrrolidin-3-yl]ethynyl]phenyl]imidazo [1,2-c]pyrimidine-7-carboxamide] as the compound, how does the Ki read?
Answer: The Ki was 4.33 nM.

Question: With `CN1CC[C@@](O)(C#Cc2cccc(-c3nccc(C(N)=O)n3)c2F)C1=O` [Example 91, 2-[2-fluoro-3-[2-[(3R)-3-hydroxy-1-methyl-2-oxo-pyrrolidin-3-yl]ethynyl]phenyl]pyrimidine-4-carboxamide] as the compound, how does the Ki read?
Answer: The Ki was 14.4 nM.

Question: How did the Ki turn out when `CN1CC[C@@](O)(C#Cc2cccc(-c3ncc(N4CCOCC4)c(C(N)=O)n3)c2)C1=O` [Example 103, 2-[3-[2-[(3R)-3-hydroxy-1-methyl-2-oxo-pyrrolidin-3-yl]ethynyl]phenyl]-5-morpholino-pyrimidine-4-carboxamide] was run?
Answer: The Ki was 22.8 nM.

Question: `CC(C)n1ncc2c(-c3cccc(C#C[C@]4(O)CCN(C)C4=O)c3)nc(C(N)=O)cc21` [Example 115, 4-[3-[2-[(3R)-3-hydroxy-1-methyl-2-oxo-pyrrolidin-3-yl]ethynyl]phenyl]-1-isopropyl-pyrazolo[4,3-c]pyridine-6-carboxamide] was tested. Which Ki did it give?
Answer: Its Ki is 1.77 nM.

Question: `Cc1nnc([C@](C)(O)C#Cc2cccc(-c3nccc(C(N)=O)n3)c2)o1` [Example 138, 2-[3-[(3R)-3-hydroxy-3-(5-methyl-1,3,4-oxadiazol-2-yl)but-1-ynyl]phenyl]pyrimidine-4-carboxamide] was tested. Which Ki did it give?
Answer: Its Ki is 60.2 nM.

Question: How did the Ki turn out when `Cc1ccc(C(N)=O)nc1-c1cccc(C#C[C@]2(O)CCN(C)C2=O)c1` [Example 140, 6-[3-[2-[(3R)-3-hydroxy-1-methyl-2-oxo-pyrrolidin-3-yl]ethynyl]phenyl]-5-methyl-pyridine-2-carboxamide] was run?
Answer: The Ki was 23.8 nM.

Question: `CN1CC[C@@](O)(C#Cc2cc(-c3nccc(C(N)=O)n3)c3cn[nH]c3c2)C1=O` [Example 156, 2-[6-[2-[(3R)-3-hydroxy-1-methyl-2-oxo-pyrrolidin-3-yl]ethynyl]-1H-indazol-4-yl] pyrimidine-4-carboxamide] was tested. Which Ki did it give?
Answer: The Ki was 11.3 nM.

Question: With `CN1CC[C@@](O)(C#Cc2cccc(-c3ccc(F)c(C(N)=O)n3)c2)C1=O` [Example 157, 3-fluoro-6-[3-[2-[(3R)-3-hydroxy-l-methyl-2-oxo-pyrrolidin-3-yl]ethynyl]phenyl] pyridine-2-carboxamide] as the compound, how does the Ki read?
Answer: Its Ki is 1.86 nM.

Question: For `CN1CC[C@@](O)(C#Cc2cccc(-c3cc(NC4COC4)cc(C(N)=O)n3)c2)C1=O` [Example 163, 6-[3-[2-[(3R)-3-hydroxy-1-methyl-2-oxo-pyrrolidin-3-yl]ethynyl]phenyl]-4-(oxetan-3-ylamino)pyridine-2-carboxamide], which Ki is on record?
Answer: The Ki was 0.21 nM.

Question: Which Ki does the source give for `CC(=O)Nc1cc(C(N)=O)nc(-c2cccc(C#C[C@]3(O)CCN(C)C3=O)c2)c1` [Example 175, 4-acetamido-6-[3-[2-[(3R)-3-hydroxy-1-methyl-2-oxo-pyrrolidin-3-yl]ethynyl]phenyl] pyridine-2-carboxamide] here?
Answer: The Ki was 0.08 nM.

Question: With `CN1CC[C@@](O)(C#Cc2cccc(-c3cc(O)cc(C(N)=O)n3)c2)C1=O` [Example 176, 4-hydroxy-6-[3-[2-[(3R)-3-hydroxy-1-methyl-2-oxo-pyrrolidin-3-yl]ethynyl]phenyl] pyridine-2-carboxamide] as the compound, how does the Ki read?
Answer: The Ki was 0.96 nM.

Question: For `CN1CC[C@@](O)(C#Cc2cc(-c3nc(C(N)=O)cc4c3cnn4C)ccc2F)C1=O` [Example 177, 4-[4-fluoro-3-[2-[(3R)-3-hydroxy-l-methyl-2-oxo-pyrrolidin-3-yl]ethynyl]phenyl]-1-methyl-pyrazolo [4,3-c]pyridine-6-carboxamide], which Ki is on record?
Answer: Its Ki is less than 0.05 nM.

Question: How did the Ki turn out when `Cc1c(O)cc(-c2cccc(C#C[C@]3(O)CCN(C)C3=O)c2)nc1C(N)=O` [Example 178, 4-hydroxy-6-[3-[2-[(3R)-3-hydroxy-1-methyl-2-oxo-pyrrolidin-3-yl]ethynyl]phenyl]-3-methyl-pyridine-2-carboxamide] was run?
Answer: The Ki was 2.87 nM.

Question: With `COc1cc(C(N)=O)nc(-c2cc(C#C[C@]3(O)CCN(C)C3=O)ccc2F)c1` [Example 179, 6-[2-fluoro-5-[2-[(3R)-3-hydroxy-l-methyl-2-oxo-pyrrolidin-3-yl]ethynyl]phenyl]-4-methoxy-pyridine-2-carboxamide] as the compound, how does the Ki read?
Answer: The Ki was less than 0.05 nM.

Question: Which Ki does the source give for `COc1cc(C(N)=O)nc(-c2ccc(F)c(C#C[C@]3(O)CCN(C)C3=O)c2)c1` [Example 180, 6-[4-fluoro-3-[2-[(3R)-3-hydroxy-1-methyl-2-oxo-pyrrolidin-3-yl]ethynyl]phenyl]-4-methoxy-pyridine-2-carboxamide] here?
Answer: The Ki was less than 0.05 nM.

Question: With `COc1cc(-c2cccc(C#C[C@]3(O)CCN(C)C3=O)c2)nc(C(N)=O)c1OC` [Example 181, 6-[3-[2-[(3R)-3-hydroxy-l-methyl-2-oxo-pyrrolidin-3-yl]ethynyl]phenyl]-3,4-dimethoxy-pyridine-2-carboxamide] as the compound, how does the Ki read?
Answer: Its Ki is 3.67 nM.

Question: How did the Ki turn out when `CN1CC[C@@](O)(C#Cc2cccc(-c3cc(-n4ccnc4)cc(C(N)=O)n3)c2)C1=O` [Example 182, 6-[3-[2-[(3R)-3-hydroxy-l-methyl-2-oxo-pyrrolidin-3-yl]ethynyl]phenyl]-4-imidazol-1-yl-pyridine-2-carboxamide] was run?
Answer: The Ki was 0.17 nM.

Question: `COCc1cc(-c2cccc(C#C[C@]3(O)CCN(C)C3=O)c2)nc(C(N)=O)n1` [Example 183, 4-[3-[2-[(3R)-3-hydroxy-l-methyl-2-oxo-pyrrolidin-3-yl]ethynyl]phenyl]-6-(methoxymethyl)pyrimidine-2-carboxamide] was tested. Which Ki did it give?
Answer: The Ki was 0.49 nM.
